Experimental data taken from patent US5430062A, “Stilbene derivatives as anticancer agents” (priority 1993, dated 1995).
Read-outs that look alike come from different tables or passages of the source.

Tests used:
SKMEL-5 melanoma = assay: MTT cytotoxicity assay, SKMEL-5; conditions: for IC50: Homo sapiens, SK-MEL-5, […], read-out: Cytotoxicity ED50, SKMEL-5
A-549 lung carcinoma = assay: MTT cytotoxicity assay, A-549; conditions: for IC50: Homo sapiens, A549, […], read-out: Cytotoxicity ED50, A-549
tubulin = assay: Inhibition of tubulin polymerization (turbidimetry); assay type: biochemical, bovine
[1] = test system: HT-29 colon adenocarcinoma; assay: MTT cytotoxicity assay, HT-29; conditions: for IC50: Homo sapiens, HT-29, […], read-out: Cytotoxicity ED50, HT-29
MLM melanoma = assay: MTT cytotoxicity assay, MLM; conditions: for IC50: read-out: Cytotoxicity ED50, MLM
MCF-7 breast carcinoma = assay: MTT cytotoxicity assay, MCF-7; conditions: for IC50: Homo sapiens, MCF7, […], read-out: Cytotoxicity ED50, MCF-7
[2] = test system: five cancer cell cultures; assay: MTT cytotoxicity assay, five cancer cell cultures taken together; conditions: for cytotoxicity (in words): five cancer cell lines
[3] = second series (Tables V-VII, IX), read-out: Inhibition of Tubulin Polymerization IC50 (±S.D.)
[4] = read-out: cytotoxicity ED50, A-549, MCF-7, HT-29, and SKMEL-5 cell cultures
[5] = read-out: cytotoxicity ED50, in at least three cell lines
[6] = read-out: cytotoxicity ED50, five cancer cell lines
[7] = read-out: cytotoxicity ED50, in at least four cell lines
[8] = first series (Table VIII and text), 37° C., 20 min, read-out: Tubulin polymerization IC50 (±S.D.)

Structure (SMILES) | IC50 (SKMEL-5 melanoma) [µM] | IC50 (A-549 lung carcinoma) [µM] | IC50 (tubulin; [3]) [µM] | IC50 [1] [µM] | IC50 (MLM melanoma) [µM] | IC50 (MCF-7 breast carcinoma) [µM] | also measured
CNC(=O)/C(=C/c1ccc(OC)cc1)c1cc(OC)c(OC)c(OC)c1 [compound 24c, (E)-N-Methyl-[3-(4-methoxyphenyl)-2-(3,4,5-trimethoxyphenyl)]-prop-2-enoamide] | 0.024 | 0.024 | 35 | 0.026 | 9.3 | 0.05 | IC50 [2, 4]: 0.0064 to 0.05 µM
COc1cc(/C=C/c2ccc(SC)cc2)cc(OC)c1OC [16c] | 0.28 | 0.47 |  | 0.083 | 7.3 | 0.059 | IC50 [2, 5]: ~0.1 µM
COc1cc(CCc2ccc(SC)cc2)cc(OC)c1OC [17c, 1-(4-Methylthiophenyl)-2-(3,4,5-trimethoxyphenyl)ethane] | 0.24 | 0.15 | > 40 | 0.4 | 1.3 | 0.2 | cytotoxicity (in words) [2]: decreased cytotoxicity
COc1ccccc1/C=C\c1cc(OC)c(OC)c(OC)c1 [compound 5c, (Z)-1-(2-Methoxyphenyl)-2-(3,4,5-trimethoxyphenyl)ethene] | 1.2 | 1.1 |  | 0.87 | 8.6 | 1.3 | inhibition of tubulin polymerization (in words) (tubulin): low activity; cytotoxicity (in words) [2]: decreased the activity drastically
COc1cc(/C=C\c2cccnc2)cc(OC)c1OC [5j, (Z)-1-(3-Pyridyl)-2-(3,4,5-trimethoxyphenyl)ethene] | 6 | 13.7 |  | 9.8 | > 25 | 14.7 | IC50 [2, 6]: > 10 µM
COc1ccc(CC(C#N)c2cc(OC)c(OC)c(OC)c2)cc1 (stereo not drawn) [compound 17h, 3-(4-Methoxyphenyl)-2-(3,4,5-trimethoxyphenyl)propanonitrile] | 0.0041 | 0.0096 | 11 | 0.0075 | 1.6 | 0.014 | IC50 [2, 7]: < 1 µM
COC(=O)/C(=C/c1ccc(OC)cc1)c1cc(OC)c(OC)c(OC)c1 [compound 24a, (E)-Methyl 3-(4-methoxyphenyl)-2-(3,4,5-trimethoxyphenyl)-prop-2-enoate] | 0.0064 | 0.011 | > 40 | 0.0095 | 9.6 | 0.02 | IC50 [2, 4]: 0.0064 to 0.05 µM
CCCOc1ccc(CCc2cc(OC)c(OC)c(OC)c2)cc1 [17b, 1-(4-n-Propoxyphenyl)-2-(3,4,5-trimethoxyphenyl)ethane] | 6.7 | 7.2 | > 40 | 6.4 | 15 | 3.9 | cytotoxicity (in words) [2]: decreased cytotoxicity
COc1ccc(/C=C\c2cc(OC)c(OC)c(OC)c2)cc1 [compound 5a, (Z)-1-(4-Methoxyphenyl)-2-(3,4,5-trimethoxyphenyl)ethene] | 0.00026 |  | 2.5 |  |  |  | times less cytotoxic than combretastatin A-4 (1a) (SKMEL-5 melanoma; SKMEL-5): ~30 times; times less cytotoxic than combretastatin A-4 (1a) (A-549 lung carcinoma; A-549): about 20 times; inhibition of tubulin polymerization (in words) (tubulin): strong inhibitors of tubulin polymerization; IC50 (tubulin; [8]): 2.2 µM; times more cytotoxic than combretastatin A-4 (1a) ([1]; HT-29): approximately 140 times; times less cytotoxic than combretastatin A-4 (1a) (MLM melanoma; MLM): ~7 times; times more cytotoxic than combretastatin A-4 (1a) (MCF-7 breast carcinoma; MCF-7): about 10 times; IC50 ([2]; read-out: cytotoxicity ED50): < 1 µM
COc1cc(/C=C\c2ccccn2)cc(OC)c1OC [5k, (Z)-1-(2-Pyridyl)-2-(3,4,5-trimethoxyphenyl)ethene] | > 25 | > 25 |  | > 25 | > 25 | > 25 | IC50 [2, 6]: > 10 µM
COc1cc(/C=C\c2ccc(O)cc2)cc(OC)c1OC [compound 5o, (Z)-1-(4-Hydroxyphenyl)-2-(3,4,5-trimethoxyphenyl)ethene] | 2.27 | 12.7 |  | 1.75 | 12.6 | 5.7 | cytotoxicity (in words) [2]: decreased the activity drastically
COc1cc(/C=C\c2ccc([N+](=O)[O-])cc2)cc(OC)c1OC [5l, (Z)-1-(4-Nitrophenyl)-2-(3,4,5-trimethoxyphenyl)ethene] | > 25 | > 25 |  | > 25 | > 25 | > 25 | cytotoxicity (in words) [2]: decreased the activity drastically
CCOc1ccc(/C=C/c2cc(OC)c(OC)c(OC)c2)cc1 [16a] | 1.17 | 0.17 |  | 1.49 | 0.22 | 0.75 | IC50 ([2]; read-out: cytotoxicity ED50): ~0.1 µM
COc1cc(/C=C\c2ccncc2)cc(OC)c1OC [5i, (Z)-1-(4-Pyridyl)-2-(3,4,5-trimethoxyphenyl)ethene] | 14.4 | 14.2 |  | 12.9 | > 25 | 17 | IC50 [2, 6]: > 10 µM
COc1cc(/C=C\c2ccc(O[Si](C)(C)C(C)(C)C)cc2)cc(OC)c1OC [5m, (Z)-1-[(4-t-Butyldimethylsilyloxy)phenyl]-2-(3,4,5-trimethoxyphenyl)ethene] | 7.59 | 11 |  | 10.6 | 17.2 | 7.29 | cytotoxicity (in words) [2]: decreased the activity drastically
COc1ccc(C(=O)c2cc(OC)c(OC)c(OC)c2)cc1 [compound 27, 3,4,4',5-Tetramethoxybenzophenone] | 0.012 | 0.011 | 7.4 | 0.013 | 0.013 | 0.015 | less cytotoxic than 8a / cytotoxicity reduced ([2]; relative to 8a): about 100 -fold
CCOc1ccc(CCc2cc(OC)c(OC)c(OC)c2)cc1 [17a, 1-(4-Ethoxyphenyl)-2-(3,4,5-trimethoxyphenyl)ethane] | 0.17 | 0.19 | 10 | 0.18 | 2.7 | 0.19 | IC50 [2, 7]: < 1 µM
COc1ccc(C(O)c2cc(OC)c(OC)c(OC)c2)cc1 (stereo not drawn) [compound 28, 4-Methoxyphenyl-(3,4,5-trimethoxyphenyl)methanol] | 1.5 | 1.5 | > 40 | 1.2 | 16.8 | 1.9 | cytotoxicity reduced relative to 27 ([2]; 28 relative to 27): 100 times
COc1cc(/C=C/c2ccc(N(C)C)cc2)cc(OC)c1OC [compound 6n, (E)-1-[4-(N,N-Dimethylamino)phenyl]-2-(3,4,5-trimethoxyphenyl)ethene] | 0.0046 | 0.0061 |  | 0.0069 | 0.0125 | 0.082 | inhibition of tubulin polymerization (in words) (tubulin): neither trans stilbene was able to significantly inhibit tubulin polymerization; IC50 (tubulin; [8]): > 50 µM; IC50 [2, 5]: < 1 µM
COc1ccc(/C=C\c2cc(OC)cc(OC)c2)cc1 [15i, (Z)-1-(3,5-Dimethoxyphenyl)-2-(4-methoxyphenyl)ethene] | 0.42 | 0.13 | 3.8 | 0.34 | 0.098 | 0.16 | IC50 ([2]; read-out: cytotoxicity ED50): ~0.1 µM
COc1cc(/C=C/c2ccc(C(C)C)cc2)cc(OC)c1OC [16f, (E)-[4-(2-Propyl)phenyl]-2-(3,4,5-trimethoxyphenyl)ethene] | 11.1 | 9.8 |  | 6.8 | > 25 | 18.4 | IC50 ([2]; read-out: cytotoxicity ED50): ~0.1 µM
CCN(CC)CCOc1ccc(CCc2cc(OC)c(OC)c(OC)c2)cc1 [17g] | 8.5 | 6.8 | > 40 | 5.2 | > 25 | 4.3 | cytotoxicity (in words) [2]: decreased cytotoxicity
COc1cc(/C=C\c2ccc(C(C)C)cc2)cc(OC)c1OC [compound 15f, (Z)-[4-(2-Propyl)phenyl]-2-(3,4,5-trimethoxyphenyl)ethene] | 0.00047 | 0.0066 |  | 0.0024 | 0.07 | 0.0014 | IC50 ([2]; read-out: cytotoxicity ED50): 0.00047 to 0.07 µM
COc1cc(CCc2ccc(OCCN(C)C)cc2)cc(OC)c1OC [17f] | 11.4 | > 25 | > 40 | 9.8 | > 25 | 10.3 | cytotoxicity (in words) [2]: decreased cytotoxicity
COc1ccc(/C=C\c2ccc(OC)c(OC)c2)cc1 [15h, (Z)-(4-Methoxyphenyl)-2-(3,4-dimethoxyphenyl)ethene] | > 25 | > 25 |  | > 25 | > 25 | > 25 | IC50 [2, 6]: > 25 µM
COc1ccc(C(Cc2cc(OC)c(OC)c(OC)c2)C(=O)O)cc1 (stereo not drawn) [compound 33, 2-(4-Methoxyphenyl)-3-(3,4,5-trimethoxyphenyl)propionic acid] | 7.4 | 14.3 | > 40 | 9.4 | > 25 | > 25 | 
COc1cc2ccc3c(OC)cccc3c2c(OC)c1OC [32d, 2,3,4,8-Tetramethoxyphenanthrene] | 12 | > 25 | > 40 | 9.3 | > 25 | 14.6 | 
